The values below come from ChEMBL document CHEMBL5604063, “ASAP - DENV-2 NS2B-NS3 protease fluorescence dose response” (2024).

Each structure is given as a SMILES string. “And” between values parts separate entries of the source, which are not always exact repeats. Equal values may be shown once.

For orientation: IC50 means the concentration that gives 50% inhibition. Low readings indicate inhibition by little substance, high ones a need for much substance.

In the test the target is Genome polyprotein (dengue virus type 2, UniProt P29990). The format is functional, Thailand/16681/1984.
Genome polyprotein, sequence (P29990 1346-1475 limits assumed): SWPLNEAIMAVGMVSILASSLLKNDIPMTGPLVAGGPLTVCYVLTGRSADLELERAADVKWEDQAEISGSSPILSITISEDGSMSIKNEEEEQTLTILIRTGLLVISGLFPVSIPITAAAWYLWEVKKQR
Genome polyprotein, sequence (P29990 1476-2093 limits assumed): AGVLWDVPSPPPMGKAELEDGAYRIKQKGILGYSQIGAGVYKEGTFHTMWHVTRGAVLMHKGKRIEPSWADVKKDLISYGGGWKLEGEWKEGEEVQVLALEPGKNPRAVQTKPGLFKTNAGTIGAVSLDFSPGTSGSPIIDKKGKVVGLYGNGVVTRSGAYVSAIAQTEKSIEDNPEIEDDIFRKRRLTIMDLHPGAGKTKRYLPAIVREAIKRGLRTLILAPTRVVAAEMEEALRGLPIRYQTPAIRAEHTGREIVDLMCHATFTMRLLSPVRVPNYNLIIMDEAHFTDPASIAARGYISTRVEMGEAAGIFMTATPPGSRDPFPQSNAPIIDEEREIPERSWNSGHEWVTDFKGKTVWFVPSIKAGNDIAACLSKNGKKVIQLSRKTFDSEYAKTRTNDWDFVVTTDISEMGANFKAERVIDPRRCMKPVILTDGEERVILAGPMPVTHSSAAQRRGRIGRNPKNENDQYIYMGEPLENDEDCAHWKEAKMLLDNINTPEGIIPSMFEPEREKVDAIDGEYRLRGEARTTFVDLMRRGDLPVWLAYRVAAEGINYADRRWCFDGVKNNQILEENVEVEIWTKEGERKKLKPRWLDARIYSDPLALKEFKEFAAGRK
`O=C(N[C@H]1CCNC1=O)c1cc(Cl)ccc1NS(=O)(=O)c1ccc(Oc2ccccc2Cl)cc1`: it took 87.3 µM to reach half-maximal inhibition (IC50). Next, `C[C@@H](NC(=O)c1cc(Cl)ccc1NS(=O)(=O)c1ccc(Oc2ccccc2Cl)cc1)[C@H]1CCCO1`: greater than 99.5 µM; `NCc1cccc(NC(=O)[C@@H](NC(=O)OCc2ccccc2)c2ccc(Br)cc2)c1`: 88.3 µM and 63.1 µM. In turn, `O=C(c1cc(Cl)ccc1NS(=O)(=O)c1ccc(Oc2ccccc2Cl)cc1)N1CC[C@H](CO)C1` gave a 50% inhibitory concentration (IC50) of 91.2 µM. In the case of `O=C(N[C@H]1CCOC1)c1cc(Cl)ccc1NS(=O)(=O)c1ccc(Oc2ccccc2Cl)cc1` it was 67.4 µM; in that of `Cc1ccc(CNC(=O)c2cc(Cl)ccc2NS(=O)(=O)c2ccc(Oc3ccccc3Cl)cc2)s1`, greater than 99.5 µM. Take `CC[C@H]1CCN(C(=O)c2cc(Cl)ccc2NS(=O)(=O)c2ccc(Oc3ccccc3Cl)cc2)C1`: the IC50 is greater than 99.5 µM. On to `O=C1C[C@@H](CNC(=O)c2cc(Cl)ccc2NS(=O)(=O)c2ccc(Oc3ccccc3Cl)cc2)CN1`, for which 79.3 µM corresponded to half-maximal inhibition (IC50).

For `COC1CN(C(=O)c2cc(Cl)ccc2NS(=O)(=O)c2ccc(Oc3ccccc3Cl)cc2)C1`, the 50% inhibitory concentration (IC50) is greater than 99.5 µM. In the case of `CC(C)(C)OC(=O)Cn1ccnc(N2CC[C@@H](CO)C2)c1=O` it was greater than 99.5 µM; in that of `C[C@H]1COCCN1C(=O)c1cc(Cl)ccc1NS(=O)(=O)c1ccc(Oc2ccccc2Cl)cc1`, 95.6 µM; in that of `COC[C@@H](C)CNC(=O)c1cc(Cl)ccc1NS(=O)(=O)c1ccc(Oc2ccccc2Cl)cc1`, greater than 99.5 µM.

`NC[C@H]1C[C@@H](NC(=O)[C@@H](NC(=O)OCc2ccccc2)c2ccc(OCc3ccccc3)cc2)C1` returned an IC50 greater than 99.5 µM. Next, `CC[C@H](C#N)NC(=O)c1cc(Cl)ccc1NS(=O)(=O)c1ccc(Oc2ccccc2Cl)cc1`: 42.4 µM. `O=C(NC[C@H]1CCCO1)c1cc(Cl)ccc1NS(=O)(=O)c1ccc(Oc2ccccc2Cl)cc1` had an IC50 greater than 99.5 µM. In the case of `O=C(NCc1c[nH]nn1)c1cc(Cl)ccc1NS(=O)(=O)c1ccc(Oc2ccccc2Cl)cc1` it was 29.9 µM; in that of `CCCCCNC(=O)c1cc(Cl)ccc1NS(=O)(=O)c1ccc(Oc2ccccc2Cl)cc1`, greater than 99.5 µM.

In turn, `O=C(N[C@@H](C(=O)NC1CNC1)c1ccc(OCc2ccccc2)cc1)OCc1ccccc1` returned a 50% inhibitory concentration (IC50) greater than 99.5 µM. Compound `C[C@@H](C(=O)Nc1cccc(CN)c1)c1ccc(OCc2ccccc2)cc1` displayed an IC50 greater than 99.5 µM. Compound `NC[C@H]1CCN1C(=O)[C@@H](NC(=O)OCc1ccccc1)c1ccc(OCc2ccccc2)cc1` gave a half-inhibitory concentration (IC50) greater than 99.5 µM. Consider `CC(C)Oc1ccc(S(=O)(=O)Nc2ccc(Cl)cc2C(=O)O)cc1`, for which the IC50 was greater than 99.5 µM. Next, `O=C(NC[C@H]1CCOC1)c1cc(Cl)ccc1NS(=O)(=O)c1ccc(Oc2ccccc2Cl)cc1`: 32.9 µM and 24 µM; `NCc1cccc(NC(=O)[C@@H](NC(=O)OCc2ccccc2)C2CCCCC2)c1`: greater than 99.5 µM. Turning to `NCc1cccc(NC(=O)C[C@@H](NC(=O)OCc2ccccc2)c2ccc(OCc3ccccc3)cc2)c1`, the 50% inhibitory concentration (IC50) came out at 10.4 µM. Next, `CCn1cc(-c2ccccc2)nc(N2CC[C@@H](CO)C2)c1=O`: greater than 99.5 µM. Next, `Cn1cc(C(=O)O)c(NS(=O)(=O)c2ccc(Oc3ccccc3Cl)cc2)n1`: greater than 99.5 µM. The compound `NCc1cccc(NC(=O)[C@@H](Cc2ccccc2)NC(=O)OCc2ccccc2)c1` returned a concentration for half-maximal inhibition (IC50) greater than 99.5 µM. Next, `COc1ccc(S(=O)(=O)Nc2cc(F)c(Cl)cc2C(=O)NCC(C)C)cc1`: 97 µM; `C[C@@H](N)c1cccc(NC(=O)[C@@H](NC(=O)OCc2ccccc2)c2ccc(OCc3ccccc3)cc2)c1`: greater than 99.5 µM.

The compound `O=C(O)c1cc(Cl)ccc1NS(=O)(=O)c1ccc(Oc2ccccc2)cc1` yielded an IC50 of 21.7 µM. As for `Cc1cnn(-c2cc(C(=O)O)c(NS(=O)(=O)c3ccc(Oc4ccccc4Cl)cc3)cc2F)c1`, the IC50 worked out at 6.2 µM.

`NC(=O)[C@H](c1c[nH]c2ccccc12)N1CCC(c2cnc3ccc[nH]c2-3)CC1` had an IC50 greater than 99.5 µM. Next, `OC[C@H]1CCN(c2cncc(N3CCOCC3)n2)C1`: greater than 99.5 µM.

In turn, `C#CCn1ccnc(N2CC[C@H](CO)C2)c1=O` yielded an IC50 greater than 99.5 µM. In turn, `C[C@@H](NC(=O)c1cc(Cl)ccc1NS(=O)(=O)c1ccc(Oc2ccccc2Cl)cc1)C1COC1` showed an IC50 of 70.2 µM.

Consider `O=S(=O)(c1ccc(Oc2ccccc2Cl)cc1)n1ccc2cc(Cl)ccc21`, for which the concentration for half-maximal inhibition (IC50) is greater than 99.5 µM.

Compound `Cc1cc(C(=O)O)c(NS(=O)(=O)c2ccc(Oc3ccccc3)cc2)cc1F` gave an IC50 of 24.9 µM. Next, `CC(C)Oc1cncc(N2CC[C@@H](CO)C2)c1`: greater than 99.5 µM; `Cn1cc(NS(=O)(=O)c2ccc(Oc3ccccc3Cl)cc2)c(C(=O)O)n1`: greater than 99.5 µM. Compound `CCn1ccnc(-n2cc([C@@H]3NC(=O)NC3=O)c3ccccc32)c1=O` gave a half-maximal inhibitory concentration (IC50) greater than 99.5 µM.

As to `NCc1cccc(NC(=O)[C@@H](N)c2ccc(OCc3ccccc3)cc2)c1`, the half-maximal inhibitory concentration (IC50) is greater than 99.5 µM.

Take `NCc1cccc(CNC(=O)[C@@H](NC(=O)OCc2ccccc2)c2ccc(OCc3ccccc3)cc2)c1`: the IC50 was 21.7 µM and 12 µM. Compound `O=C(Nc1ccc(Cl)cc1C(=O)O)c1ccc(Oc2ccccc2Cl)cc1` returned an IC50 of 42.5 µM. Next, `CCn1ccc(-c2ccc([C@@H](NC(=O)OCc3ccccc3)C(=O)Nc3cccc(CN)c3)cc2)n1`: greater than 99.5 µM; `C[C@@H](O)CNC(=O)c1cc(Cl)ccc1NS(=O)(=O)c1ccc(Oc2ccccc2Cl)cc1`: 56.6 µM.

Turning to `O=C(O)c1c(NS(=O)(=O)c2ccc(Oc3ccccc3Cl)cc2)ccc(Cl)c1F`, the concentration for half-maximal inhibition (IC50) worked out at 18.1 µM. Next, `CC(=O)N[C@@H](C(=O)Nc1cccc(CN)c1)c1ccc(OCc2ccccc2)cc1`: greater than 99.5 µM; `CCn1cc(C#N)nc(N2CC[C@@H](CO)C2)c1=O`: greater than 99.5 µM.

`NCc1cccc(NC(=O)[C@H]2c3ccc(OCc4ccccc4)cc3CCN2C(=O)OCc2ccccc2)c1` gave a half-maximal inhibitory concentration (IC50) greater than 99.5 µM.

Take `NCc1cccc(NC(=O)[C@@H]2c3ccsc3CCN2C(=O)OCc2ccccc2)c1`: the half-inhibitory concentration (IC50) was greater than 99.5 µM. In the case of `O=C(O)c1cc2c(cc1NS(=O)(=O)c1ccc(Oc3ccccc3Cl)cc1)CCC2` it was 7.97 µM. Next, `CC(C)(C)Oc1ccc(S(=O)(=O)Nc2ccc(Cl)cc2C(=O)O)cc1`: greater than 99.5 µM; `NCc1cccc(NC(=O)[C@@H](NC(=O)OCc2ccccc2)c2ccc(-c3ccccc3F)cc2)c1`: 10.4 µM; `NCc1cc(Cl)ccc1NS(=O)(=O)c1ccc(Oc2ccccc2Cl)cc1`: greater than 99.5 µM. `COC(=O)c1cc(Cl)ccc1NS(=O)(=O)c1ccc(Oc2ccccc2Cl)cc1` returned an IC50 greater than 99.5 µM.

Compound `O=C(O)[C@H]1CCCC[C@@H]1NS(=O)(=O)c1ccc(Oc2ccccc2Cl)cc1` registered an IC50 greater than 99.5 µM. In the case of `O=c1c(N2CC[C@H](CO)C2)nccn1C1CC1` it was greater than 99.5 µM; in that of `O=C(O)[C@@H]1CC2(CC[C@@H]1NS(=O)(=O)c1ccc(Oc3ccccc3Cl)cc1)CC2`, greater than 99.5 µM.

`COC(=O)c1cc(Cl)ccc1NS(=O)(=O)c1ccc(Cl)nc1` showed an IC50 greater than 99.5 µM. Next, `NCc1cccc(NC(=O)CN(C(=O)OCc2ccccc2)c2ccc(OCc3ccccc3)cc2)c1`: 34.9 µM; `COc1cc(N[C@@H](C(=O)N2CCc3ccc(OC(F)(F)F)cc32)c2ccc(Cl)cc2)cc(OCCCC(=O)O)c1`: 14.2 µM; `NCc1cccc(NC(=O)[C@@H](NC(=O)OCc2ccccc2)c2cccnc2)c1`: greater than 99.5 µM. Next, `COc1ccc(S(=O)(=O)Nc2ccc(Cl)cc2C(=O)O)cc1`: greater than 99.5 µM; `O=C(O)c1cc(Cl)ccc1NS(=O)(=O)c1ccc(Br)cc1`: greater than 99.5 µM. In the case of `NCc1cccc(NC(=O)c2cc(OCc3ccccc3)ccc2CNC(=O)OCc2ccccc2)c1`, 24.8 µM corresponded to half-maximal inhibition (IC50). The compound `O=C(O)c1cc(Cl)ccc1S(=O)(=O)Nc1ccc(Oc2ccccc2Cl)cc1` returned an IC50 of 16.8 µM.

`O=C(O)[C@@H]1CCCC[C@H]1NS(=O)(=O)c1ccc(Oc2ccccc2Cl)cc1` returned an IC50 greater than 99.5 µM. Regarding `O=C(N[C@@H]1CCc2cn[nH]c2C1)c1cccc2c1NC(=O)[C@]1(CCCN1)C2`, the IC50 was greater than 99.5 µM. The compound `O=C(c1cc(Cl)ccc1NS(=O)(=O)c1ccc(Oc2ccccc2Cl)cc1)N1CCC[C@H](O)C1` showed a 50% inhibitory concentration (IC50) of 63.6 µM. In the case of `CN(C(=O)[C@@H](NC(=O)OCc1ccccc1)c1ccc(OCc2ccccc2)cc1)c1cccc(CN)c1` it was greater than 99.5 µM; in that of `O=C(NCc1cnn(CCO)c1)c1cccc2c1NC(=O)[C@]1(CCCN1)C2`, greater than 99.5 µM; in that of `O=C(O)c1cc(NS(=O)(=O)c2ccc(Oc3ccccc3Cl)cc2)ccc1Cl`, greater than 99.5 µM. `CCn1ccnc(N2C[C@@H](OC(=O)OC)[C@H](c3c[nH]c4ccccc34)C2)c1=O` showed an IC50 greater than 99.5 µM.

`Cc1cccc([C@@H](NC(=O)OCc2ccccc2)C(=O)Nc2cccc(CN)c2)n1`: the IC50 was greater than 99.5 µM. Next, `CC(C)(C)OC(=O)NCc1cccc(NC(=O)[C@@H](NC(=O)OCc2ccccc2)c2cccc(O)c2)c1`: greater than 99.5 µM. In the case of `Cc1cc(C=O)c(C)n1-c1cccc(C(=O)N2CCN(C)CC2)c1` it was greater than 99.5 µM.

Turning to `O=C(N[C@@H](C(=O)N[C@H]1CCCNC1)c1ccc(OCc2ccccc2)cc1)OCc1ccccc1`, the IC50 is greater than 99.5 µM. Compound `O=C(O)[C@@H]1CCCC[C@@H]1NS(=O)(=O)c1ccc(Oc2ccccc2Cl)cc1` came in with an IC50 greater than 99.5 µM. Next, `NCc1ccc(C[C@H](NC(=O)OCc2ccccc2)C(=O)Nc2cccc(CN)c2)cc1`: greater than 99.5 µM; `COc1ccc(S(=O)(=O)Nc2cc(F)c(Cl)cc2C(=O)O)cc1`: greater than 99.5 µM. In the case of `COc1cc(NS(=O)(=O)c2ccc(Oc3ccccc3Cl)cc2)c(C(=O)O)cc1Cl` it was 8.67 µM; in that of `C[C@@H](CS(C)(=O)=O)NC(=O)c1cc(Cl)ccc1NS(=O)(=O)c1ccc(Oc2ccccc2Cl)cc1`, 80.9 µM; in that of `Cc1cc(C(=O)N[C@@H]2CC[C@@H]3CN(C)C[C@@H]32)sc1C=O`, greater than 99.5 µM. Next, `Cc1ncc(-c2ccc([C@@H](NC(=O)OCc3ccccc3)C(=O)Nc3cccc(CN)c3)cc2)s1`: 29.4 µM. Compound `CCn1ccnc(N(C)[C@@H](CO)Cc2c[nH]c3ccccc23)c1=O` displayed an IC50 greater than 99.5 µM.

The compound `NCc1ccc2c(c1)N(C(=O)[C@@H](NC(=O)OCc1ccccc1)c1ccc(OCc3ccccc3)cc1)CC2` showed an IC50 greater than 99.5 µM.
